According to patent publication US20230183758A1, “METHOD FOR PREPARING DIACYLGLYCEROL BY IMMOBILIZED SN-2 LIPASE” (Shandong Academy of Agricultural Sciences, priority 2021, published 2023):
“Also recorded” adds a separate entry of the source.

Biological target: immobilized enzyme CAL-A and free enzyme CAL-A (Moesziomyces aphidis, UniProt W3VKA4)
Assay: Influence of organic solvents, metal ions and surfactants on enzyme activity
Format: biochemical, Candida antarctica
Conditions: for effect of organic solvent on hydrolysis activity: 10% (v/v) and 20% (v/v) solvent
Source text: Add 10 mmol/L, 5 mmol/L, l0 mmol/L K+, Al^3+, Fe^2+, Fe3+, Ca^2+, Mg^2+, Mn^2+, Zn^2+, Ba^2+, Na^2+ and other 10 kinds of metal ion solutions to measure the enzyme activity respectively, take the activity of the untreated immobilized enzyme CAL-A and free enzyme CAL-A enzyme as 100%, analyze the influence of metal ions on the enzyme activity. (FIG. 4-G, FIG. 4-H, FIG. 4-I).
Add 10% (v/v) and 20% (v/v) methanol, ethanol, acetonitrile, acetone, n-butanol, isooctane, isopropanol, n-hexane, n-heptane, petroleum ether, tert-butyl Alcohol, glacial acetic acid, ethyl acetate and other 13 kinds of organic solvent solutions respectively, measure the enzyme activity. Take the untreated immobilized enzyme CAL-A and free enzyme CAL-A enzyme activity as 100%, analyze the influence of organic solvent on the enzyme activity.
Add 0.0001%, 0.0005%, 0.001% SDS, TritionX-100, Tween-80, Tween-20, EDTA and other 5 kinds of surfactant solutions respectively, measure the enzyme activity, take the untreated immobilized enzyme CAL-A and free enzyme CAL-A enzyme activity as 100%, analyze the influence of surfactant on enzyme activity.

Sequence of immobilized enzyme CAL-A and free enzyme CAL-A (W3VKA4 22-462): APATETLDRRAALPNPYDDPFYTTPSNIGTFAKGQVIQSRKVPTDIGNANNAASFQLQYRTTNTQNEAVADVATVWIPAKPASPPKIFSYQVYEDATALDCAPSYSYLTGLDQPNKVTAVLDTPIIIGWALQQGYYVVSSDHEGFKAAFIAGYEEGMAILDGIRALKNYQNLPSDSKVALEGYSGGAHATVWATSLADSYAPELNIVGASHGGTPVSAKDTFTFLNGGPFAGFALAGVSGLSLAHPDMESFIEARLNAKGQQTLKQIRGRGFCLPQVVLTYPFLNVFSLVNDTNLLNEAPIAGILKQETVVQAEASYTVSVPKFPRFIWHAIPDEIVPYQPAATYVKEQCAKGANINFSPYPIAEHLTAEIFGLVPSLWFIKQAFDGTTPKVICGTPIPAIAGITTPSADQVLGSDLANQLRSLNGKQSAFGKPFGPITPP

O=C(O)CN(CCN(CC(=O)O)CC(=O)O)CC(=O)O [EDTA]
effect of surfactant on lipase activity (0.0005% EDTA): activating effect; also recorded: activate | effect of surfactant on lipase activity (0.001% EDTA): inhibitory effect; also recorded: inhibit

O=S(=O)([O-])[O-].[Fe+2] [Fe^2+]
effect of metal ion on hydrolysis of immobilized enzymes (metal ion solutions 1, 5, 10 mmol/L, untreated enzyme = 100%): activate

CC(=O)O [acetic acid]
effect of organic solvent on hydrolysis activity (untreated enzyme = 100%): significantly inhibit; also recorded: obvious inhibitory effects

CCO [ethanol]
effect of organic solvent on hydrolysis activity (untreated enzyme = 100%): significantly inhibit; also recorded: obvious inhibitory effects

CCOC(C)=O [ethyl acetate]
effect of organic solvent on hydrolysis activity (untreated enzyme = 100%): activate; also recorded: activation effects

CCCCCC [n-hexane]
effect of organic solvent on hydrolysis activity (untreated enzyme = 100%): significantly inhibit; also recorded: obvious inhibitory effects

CC(C)(C)O [tert-butanol]
effect of organic solvent on hydrolysis activity (untreated enzyme = 100%): activate; also recorded: activation effects

n-butanol
effect of organic solvent on hydrolysis activity (untreated enzyme = 100%): activate; also recorded: activation effects
